Reference: patent publication US8501950B2, “N-cyanoalkylanthranilamides as insecticides” (Syngenta Crop Protection LLC, priority 2006, dated 2013)
Read-outs that look alike come from different tables or passages of the source.

Assays:
[1] = test system: Plutella xvlostella (Diamond Back Moth); test: Example B3: activity against Plutella xylostella, L2 larvae on artificial diet; assay type: in vivo; details: 120 h
Experimental: Activity Against Plutella xvlostella (Diamond Back Moth)
24-well microtiter plate (MTP) with artificial diet is sprayed with test solutions. After drying, the MTP's are infested with larvae (L2)(10-15 per well). After an incubation period of 5 days, samples are checked for larval mortality, antifeedant and growth inhibition.

[2] = test system: Heliothis virescens (Tobacco Budworm); test: Example B2: activity against Heliothis virescens, eggs on artificial diet; assay type: in vivo; details: 96 h
Experimental: Activity Against Heliothis virescens (Tobacco Budworm)
Eggs (0-24 h old) are placed in 24-well microtiter plate on artificial diet and sprayed with test solutions. After an incubation period of 4 days, samples are checked for egg mortality, larval mortality, and growth inhibition.

[3] = test system: Diabrotica balteata (Corn Root Worm); test: Example B4: activity against Diabrotica balteata, L2 larvae on artificial diet; assay type: in vivo; details: 120 h, 5 days incubation, read-out: activity (sentence prints only 'over 80%')
Experimental: Activity Against Diabrotica balteata (Corn Root Worm)
24-well microtiter plate (MTP) with artificial diet is sprayed with test solutions. After drying, the MTP's are infested with larvae (L2)(6-10 per well). After an incubation period of 5 days, samples are checked for larval mortality, antifeedant and growth inhibition.

[4] = test system: Cydia pomonella (Codling Moth); test: Example B10: activity against Cydia pomonella, sprayed diet cubes; assay type: in vivo; details: 336 h
Experimental: Activity Against Cydia pomonella (Codling Moth)
Standard Cydia diet cubes (1.5 cm width) are pierced with a tooth-pick and are immersed in liquid paraffin (ca. 80° C.). After the paraffin coat has hardened, an aqueous emulsion containing 12.5 ppm of active ingredient is applied using a De Vilbis sprayer (25 ml, 1 bar). After the spray coating has dried, the cubes are put into plastic containers which are then populated with two freshly hatched Cydia pomonella (1st instar). The containers are then closed with a plastic cap. After 14 days incubation at 26° C. and 40-60% relative humidity, the survival rate of the caterpillars as well as their growth regulation is determined.

[5] = test system: Thrips tabaci (Onion Thrips); test: Example B7: activity against Thrips tabaci, sunflower leaf discs; assay type: in vivo; details: foliar, 144 h
Experimental: Activity Against Thrips tabaci (Onion Thrips)
Sunflower leaf discs are placed on agar in a 24-well microtiter plate and sprayed with test solutions. After drying, the leaf discs are infested with a thrips population of mixed ages. After an incubation period of 6 days, samples are checked for mortality and special effects (e.g. phytotoxicity).

[6] = test system: Frankliniella occidentalis (Western Flower Thrips); test: Example B12: activity against Frankliniella occidentalis, sprayed bean plants, comparison with prior art; assay type: in vivo; details: for inhibition at 12.5 ppm / inhibition at 25 ppm / inhibition at 50 ppm: Frankliniella occidentalis, 288 h, reduction of treated population vs non treated, read-out: Activity (%) after 12 days
Experimental: Activity Against Frankliniella occidentalis (Western Flower Thrips)
Bean plants are treated in a spray chamber with diluted test solutions. After drying they are infested with mixed population. 12 days after the infestation, samples are checked for reduction of treated population and compared to the non treated population.

[7] = test system: Spodoptera littoralis (Cotton Leafworm); test: Example B11: systemic insecticide test for Spodoptera littoralis, comparison with prior art; assay type: in vivo; details: for mortality at 0.0125 ppm / mortality at 0.05 ppm: Spodoptera littoralis, 120 h, read-out: Mortality (%) after 5 days
Source text: (§1) Systemic Insecticide Test for Spodoptera littoralis (Cotton Leafworm)
[…] Seedlings are allowed to grow for six days. […] Number of alive insects are counted and percentage of dead calculated.

[8] = test system: Mvzus persicae (Green Peach Aphid); test: Example B5: activity against Myzus persicae (contact), sunflower leaf discs; assay type: in vivo; details: foliar, 144 h
Experimental: Activity Against Mvzus persicae (Green Peach Aphid): (Contact)
Sunflower leaf discs are placed on agar in a 24-well microtiter plate and sprayed with test solutions. After drying, the leaf discs are infested with an aphid population of mixed ages. After an incubation period of 6 DAT, samples are checked for mortality and special effects (e.g. phytotoxicity).

[9] = test system: Spodoptera littoralis (Cotton Leafworm); test: Example B9: systemic insecticide test for Spodoptera littoralis, maize seedlings at 12.5 ppm; assay type: in vivo
Experimental: as §1
[…] Seedlings are allowed to grow for six days. Subsequently leaves are cut and placed in a Petri dish (5 cm diameter), inoculated with twelve to fifteen 1st instar S. littoralis larvae and incubated for four days in a growth chamber (25° C., 50% r.h., 18:6 L:D photo period). Number of alive insects are counted and percentage of dead calculated. Tests were conducted with one replicate.

[10] = test system: Spodoptera littoralis (Egyptian Cotton Leafworm); test: Example B1: activity against Spodoptera littoralis, sprayed cotton leaf discs, L1 larvae; assay type: in vivo; details: foliar, 72 h
Source text: Activity Against Spodoptera littoralis (Egyptian Cotton Leafworm)
Cotton leaf discs are placed on agar in a 24-well microtiter plate and sprayed with test solutions. After drying, the leaf discs are infested with 5 L1 larvae. The samples are checked for mortality, repellent effect, feeding behaviour, and growth inhibition 3 days after treatment (DAT).

[11] = test system: Myzus persicae (Green Peach Aphid); test: Example B6: activity against Myzus persicae (systemic), pea seedling roots in test solution; assay type: in vivo; details: 144 h
Source text: Activity Against Myzus persicae (Green Peach Aphid): (Systemic)
Roots of pea seedlings, infested with an aphid population of mixed ages, are placed directly in the test solutions. 6 days after introduction, samples are checked for mortality and special effects on the plant.

[12] = test system: Tetranychus urticae (Two-Spotted Spider Mite); test: Example B8: activity against Tetranychus urticae, bean leaf discs; assay type: in vivo
Source text: Activity Against Tetranychus urticae (Two-Spotted Spider Mite)
Bean leaf discs on agar in 24-well microtiter plates are sprayed with test solutions. After drying, the leaf discs are infested with mite populations of mixed ages. 8 days later, discs are checked for egg mortality, larval mortality, and adult mortality.

[13] = 200 ppm, 5 days incubation, L2 larvae, read-out: mortality
[14] = 200 ppm, 4 days incubation, eggs on artificial diet, read-out: mortality
[15] = 12.5 ppm in water, systemic via maize seedlings, one replicate, read-out: mortality
[16] = 200 ppm, 3 days after treatment, L1 larvae on cotton leaf discs, read-out: mortality

SMILES | mortality at 200 ppm [1] [%] | mortality at 200 ppm [2] [%] | pest or weed control at 200 ppm [3] [%] | mortality at 12.5 ppm [4] [%] | mortality at 200 ppm [5] [%] | mortality at 12.5 ppm [9] [%] | mortality at 200 ppm [10] [%] | also measured
Cc1cc(I)cc(C(=O)NC(C)(C#N)C2CC2)c1NC(=O)c1cc(OC(F)F)nn1-c1ncccc1Cl (stereo not drawn) |  |  |  |  |  |  |  | melting point: 203 to 204 °C
Cc1cc(Cl)cc(C(=O)NC(C)(C#N)C2CC2)c1NC(=O)c1cc(C(F)(F)F)nn1-c1ncccc1Cl (stereo not drawn) [Compound T1.1.49, 2-(3-chloro-pyridin-2-yl)-5-trifluoromethyl-2H-pyrazole-3-carboxylic acid {4-chloro-2-[(cyano-cyclopropyl-methyl-methyl)-carbamoyl]-6-methyl-phenyl}-amide] | > 80 | > 80 | > 80 | > 80 | > 80 | > 80 | > 80 | inhibition at 12.5 ppm [6]: 75%; inhibition at 25 ppm [6]: 85%; inhibition at 50 ppm [6]: 90%; insecticidal action compared with the compound from the state of the art (A.1.346) ([6]; Table B12, 50, 25 and 12.5 ppm): substantially better insecticidal action; mortality at 0.0125 ppm [7]: 93%; mortality at 0.05 ppm [7]: 100%; insecticidal action compared with the compound from the state of the art (A.1.346) ([7]; Table B11): substantially better insecticidal action; mortality at 200 ppm [8]: > 80%
Cc1cc(Cl)cc(C(=O)NC(C)(C#N)C2CC2)c1NC(=O)c1cc(OC(F)F)nn1-c1ncccc1Cl (stereo not drawn) |  |  |  |  |  |  |  | melting point: 197 to 198 °C
Cc1cc(I)cc(C(=O)NC(C)(C#N)C2CC2)c1NC(=O)c1cc(C(F)(F)F)nn1-c1ncccc1Cl (stereo not drawn) [Compound T1.1.105] | > 80 | > 80 | > 80 | > 80 | > 80 | > 80 | > 80 | mortality at 200 ppm [8]: > 80%
COc1cc(C(=O)Nc2c(C)cc(Cl)cc2C(=O)NC(C)(C#N)C2CC2)n(-c2ncccc2Cl)n1 (stereo not drawn) [Compound T1.1.55] | > 80 | > 80 | > 80 |  |  | > 80 | > 80 | mortality at 12.5 ppm [11]: > 80%
Cc1cc(Cl)cc(C(=O)NC(C)(C#N)C2CC2)c1NC(=O)c1cc(Cl)nn1-c1ncccc1Cl (stereo not drawn) [Compound T1.1.51] | > 80 | > 80 | > 80 | > 80 | > 80 | > 80 | > 80 | 
Cc1cc(I)cc(C(=O)NC(C)(C#N)C2CC2)c1NC(=O)c1cc(C(F)F)nn1-c1ncccc1Cl (stereo not drawn) [Compound T1.1.108] | > 80 | > 80 | > 80 |  | > 80 |  | > 80 | 
Cc1cc(Cl)cc(C(=O)NC(C#N)C2CC2)c1NC(=O)c1cc(C(F)(F)F)nn1-c1ncccc1Cl (stereo not drawn) [A.1.346, reference compound] |  |  |  |  |  |  |  | inhibition at 12.5 ppm [6]: 0%; inhibition at 25 ppm [6]: 0%; inhibition at 50 ppm [6]: 0%; mortality at 0.0125 ppm [7]: 0%; mortality at 0.05 ppm [7]: 100%
Cc1cc(Cl)cc(C(=O)NC(C)(C#N)C2CC2)c1NC(=O)c1cc(Br)nn1-c1ncccc1Cl (stereo not drawn) [Compound T1.1.50] | > 80 | > 80 | > 80 | > 80 | > 80 | > 80 | > 80 | mortality at 12.5 ppm [11]: > 80%
COc1cc(C(=O)Nc2c(C)cc(I)cc2C(=O)NC(C)(C#N)C2CC2)n(-c2ncccc2Cl)n1 (stereo not drawn) [Compound T1.1.111] |  |  |  |  |  |  |  | mortality at 200 ppm [1, 13]: > 80%; mortality at 200 ppm [2, 14]: > 80%; mortality at 12.5 ppm [9, 15]: > 80%; mortality at 200 ppm [10, 16]: > 80%
Cc1cc(Cl)cc(C(=O)NC(C)(C#N)C2CC2)c1NC(=O)c1cc(C(F)F)nn1-c1ncccc1Cl (stereo not drawn) [Compound T1.1.52] | > 80 | > 80 | > 80 | > 80 | > 80 | > 80 | > 80 | mortality at 200 ppm [8]: > 80%; mortality at 12.5 ppm [11]: > 80%
Cc1cc(Cl)cc(C(=O)NC(C)(C#N)C2CCC2)c1NC(=O)c1cc(C(F)(F)F)nn1-c1ncccc1Cl (stereo not drawn) [Compound T2.1.49] | > 80 | > 80 | > 80 |  |  |  | > 80 | mortality at 12.5 ppm [11]: > 80%
Cc1cc(I)cc(C(=O)NC(C)(C#N)C2CC2)c1NC(=O)c1cc(Cl)nn1-c1ncccc1Cl (stereo not drawn) [Compound T1.1.107] | > 80 | > 80 |  | > 80 | > 80 | > 80 | > 80 | mortality at 200 ppm ([12]; Tetranychus urticae, foliar, 192 h): 80%; activity in words ([12]; in vivo): good activity
Cc1cc(I)cc(C(=O)NC(C)(C#N)C2CC2)c1NC(=O)c1cc(Br)nn1-c1ncccc1Cl (stereo not drawn) [Compound T1.1.106] | > 80 | > 80 | > 80 |  |  | > 80 | > 80 | 
Cc1cc(Cl)cc(C(=O)NC(C)(C#N)C2CC2)c1NC(=O)c1cc(C(F)(F)F)nn1-c1ncccc1Cl (single isomer, unassigned) [Compound T1.1.49a] |  |  |  |  |  |  |  | mortality at 200 ppm [1, 13]: > 80%; mortality at 200 ppm [2, 14]: > 80%; mortality at 12.5 ppm ([4]; 12.5 ppm, 14 days incubation at 26° C., read-out: mortality): > 80%; mortality at 200 ppm ([5]; 200 ppm, 6 days incubation, mixed ages, read-out: mortality): > 80%; mortality at 12.5 ppm [9, 15]: > 80%; mortality at 200 ppm [10, 16]: > 80%
Cc1cc(Cl)cc(C(=O)NC(C)(C#N)C2CC2)c1NC(=O)c1cc(OCC(F)(F)F)nn1-c1ncccc1Cl (stereo not drawn) [Compound T1.1.53] | > 80 | > 80 | > 80 | > 80 |  | > 80 | > 80 | 
